Experimental data published in PMC10985226, “A tangible method to assess native ferroptosis suppressor activity” (Cell Reports Methods, 2024).

Biological target: T1, Glutathione peroxidase 4 (Strep-hGPX4) (Homo sapiens, UniProt P36969)
T1 construct: gene GPX4
T1 sequence (P36969 28-197): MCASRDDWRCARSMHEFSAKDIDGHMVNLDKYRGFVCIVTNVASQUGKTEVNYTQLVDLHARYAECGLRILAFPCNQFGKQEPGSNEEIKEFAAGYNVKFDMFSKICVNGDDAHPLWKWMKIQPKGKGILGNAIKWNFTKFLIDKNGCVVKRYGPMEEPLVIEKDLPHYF
Experiment: substrate turnover by isolated hGPX4, NADPH-coupled assay
Format: biochemical

SMILES | substrate turnover by isolated hGPX4, NADPH-coupled assay
CC(C)(C)OO [tBuOOH, tert-butyl hydroperoxide] | All hydroperoxides except for H2O2 afforded the GPX4-dependent NADPH consumption in the assay system
CC(C)(OO)c1ccccc1 [cumeneOOH, cumene hydroperoxide] | All hydroperoxides except for H2O2 afforded the GPX4-dependent NADPH consumption in the assay system
